Measured values as given in patent US8815806B2, “Yellow pea seed protein-derived peptides” (University of Manitoba, priority 2009, dated 2014).

What was measured:
[1] = tested on: spontaneously hypertensive rats (SHR); test: Spontaneously hypertensive rats, oral gavage, systolic blood pressure by tail-cuff; format: in vivo, rat; settings: for change in systolic blood pressure (ΔSBP): 24 hour after oral gavage, 30 mg/kg BW; for hypotensive activities, duration of effect: over a 24 hr period, oral 30 mg/kg BW, FIG. 16
Procedure: Animal experiments were carried out following the Canadian Council on Animal Care ethics guidelines with a protocol approved by the University of Manitoba Animal Protocol and Management Review Committee. The spontaneously hypertensive rats (SHR) were kept in the Animal Housing Facility at the Richardson Centre for Functional Foods and Nutraceuticals, University of Manitoba under a 12-hr day and night cycle at 21° C. and were fed a regular chow diet and tap water, ad libitum. The SHR were divided into […] that received the following treatments (dissolved in phosphate buffered saline, pH 7.2): ADMFPF (SEQ ID NO. 23) peptide (n=6), WMP (SEQ ID NO. 15) peptide (n=6), captopril (positive control, n=6), saline (negative control, n=6). The peptides (each at 30 mg/kg body weight, BW) and captopril (3 mg/kg BW) were administered to the SHR by oral gavage followed by measurement of systolic blood pressure (SBP) at 2, 4, 6, 8 and 24 hr by the tail-cuff method in slightly anesthesized rats. Prior to sample administration, the baseline (time zero) SBP was determined. In order to mitigate the blood pressure (BP) depression effect of isofluorane, the gas flow was optimized such that rats became conscious usually within 3-4 min after removal from the chamber, which provided enough time to perform the blood pressure measurement. Rats were first anesthesized in a chamber (maintained at about 40° C.) with 4% isofluorane for 4 min. They were then removed from the isofluorane chamber and tail-cuff measurement of blood pressure performed in the […]. The change in SBP (ΔSBP, mmHg) was determined by subtracting the data for the different time points from their respective baseline data.

[2] = molecular target: T1, human recombinant renin (Homo sapiens, UniProt P00797); test: Renin inhibitory activity assay (fluorometric); format: biochemical; settings: Table 1; peptide concentration not given
T1 construct: purchased Cayman Chemical; host or cells: HEK cells
T1 sequence (P00797 67-406): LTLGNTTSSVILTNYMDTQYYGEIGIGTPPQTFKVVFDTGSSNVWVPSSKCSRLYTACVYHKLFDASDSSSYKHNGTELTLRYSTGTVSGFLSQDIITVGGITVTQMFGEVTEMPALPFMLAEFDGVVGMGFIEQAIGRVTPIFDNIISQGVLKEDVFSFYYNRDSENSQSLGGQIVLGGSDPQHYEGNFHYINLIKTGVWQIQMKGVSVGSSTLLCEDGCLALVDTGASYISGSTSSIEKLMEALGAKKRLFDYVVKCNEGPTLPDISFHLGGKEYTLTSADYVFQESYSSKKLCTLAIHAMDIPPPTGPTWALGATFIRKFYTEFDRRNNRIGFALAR
Procedure: Renin inhibitory activity assays were carried out on a Shimadzu RF 1501 spectrofluorometer equipped with thermostated cell holder according to the method of Wang, Chung, Holzman, & Krafft (1993) with some modifications (FIG. 5 and Table 1). The following instrumental parameters were used: excitation wavelength, 340 nm; emission wavelength, 490 nm; excitation and emission bandwidth, 10 nm. A standard 2 mL, 1 cm pathlength cuvettes containing 1 mL of buffer (or 1 mL varied peptide concentrations) and 1 mL of 2.5 μM substrate, was equilibrated at 37° C. for 5 min to gain thermal equilibrium. A 15 μL of renin (0.4 μg renin) was then added to the cuvette to initiate the reaction. The time dependent increase of fluorescence intensity was monitored for 5 min. The initial reaction velocity, expressed in arbitrary fluorescence units per minute (FU/min), was calculated by least-squares analysis of the initial phase of the reaction. The renin inhibiting activity of the peptide fractions and the individual peptides within are described in Table 1.
Renin inhibiting assay was modified from the fluorometric assay developed for renin activity measurement (FIG. 5). […] The Michaelis-Menten constant (Km) in our study is 3.8 μM for human recombinant renin in the absence of peptide fractions. This value is close to the reported KM of 3.6 μM using the same source of renin and substrate under similar assay conditions (Holzman et al 1991). However, Km of human recombinant renin was also reported to be 1.62 μM (Toshihisa et al., 1992), or 1.25 μM in purified human renal renin acting on pure human plasma angiotensingen at pH 5.7 (Cumin et al., 1987), 1.54 μM at pH 6.5 (Slater and Strout 1981). The Km value for the reaction between renin and substrate also depends on pH, ionic strength, the medium and the assay procedure used (Poulsen et al., 1976). The Michaelis-Menten constants were increased to 6.3 and 6.1 μM, respectively in the presence of peptide fractions of T4 and T5, indicating decreased binding ability between renin and substrate because of the presence of competitive peptide inhibitors.

Compound	RENIN INHIBITION % [2]	other results
C[C@H](CS)C(=O)N1CCC[C@H]1C(=O)O [Captopril, captopril, reference compound]		hypotensive effect compared to ADMFPF ([1]; after 24 hour, captopril 3 mg/kg BW oral): less effective
ADMFPF (listed as Pisum sativum) [SEQ ID NO. 23]		change in systolic blood pressure (ΔSBP) [1]: −25 mmHg; hypotensive activities, duration of effect [1]: comparable to captopril
SEQ ID NO. 13: peptide identified within the bioactive fractions of yellow pea protein hydrolysate (WLP; listed as Pisum sativum)	4.85%	
WMP (listed as Pisum sativum) [SEQ ID NO. 15]	43.37%	change in systolic blood pressure (ΔSBP) [1]: −14 mmHg; hypotensive activities, duration of effect [1]: comparable to captopril; hypotensive effects compared with ADMFPF ([1]; up to 8 hours after oral administration): initial higher hypotensive effects

Second part, led by results:

RENIN INHIBITION % [2]	Compound	other results
15.39%	SEQ ID NO. 14: peptide identified within the bioactive fractions of yellow pea protein hydrolysate (RAAP; listed as Pisum sativum)	
57.53%	SEQ ID NO. 17: peptide identified within the bioactive fractions of yellow pea protein hydrolysate (RSPD; listed as Pisum sativum)	
9.30%	SEQ ID NO. 18: peptide identified within the bioactive fractions of yellow pea protein hydrolysate (WPHT; listed as Pisum sativum)	
22.19%	SEQ ID NO. 19: peptide identified within the bioactive fractions of yellow pea protein hydrolysate (YPRE; listed as Pisum sativum)	
